Measured values published in paper PMC5889666 (Proceedings of the National Academy of Sciences of the …, 2018).

Columns and labels:
FadD = molecular target: T1, FadD (Escherichia coli, UniProt P69451); assay: in vitro acyl-CoA synthesis, product by LC-MS; format: biochemical
T1 sequence (P69451 1-561): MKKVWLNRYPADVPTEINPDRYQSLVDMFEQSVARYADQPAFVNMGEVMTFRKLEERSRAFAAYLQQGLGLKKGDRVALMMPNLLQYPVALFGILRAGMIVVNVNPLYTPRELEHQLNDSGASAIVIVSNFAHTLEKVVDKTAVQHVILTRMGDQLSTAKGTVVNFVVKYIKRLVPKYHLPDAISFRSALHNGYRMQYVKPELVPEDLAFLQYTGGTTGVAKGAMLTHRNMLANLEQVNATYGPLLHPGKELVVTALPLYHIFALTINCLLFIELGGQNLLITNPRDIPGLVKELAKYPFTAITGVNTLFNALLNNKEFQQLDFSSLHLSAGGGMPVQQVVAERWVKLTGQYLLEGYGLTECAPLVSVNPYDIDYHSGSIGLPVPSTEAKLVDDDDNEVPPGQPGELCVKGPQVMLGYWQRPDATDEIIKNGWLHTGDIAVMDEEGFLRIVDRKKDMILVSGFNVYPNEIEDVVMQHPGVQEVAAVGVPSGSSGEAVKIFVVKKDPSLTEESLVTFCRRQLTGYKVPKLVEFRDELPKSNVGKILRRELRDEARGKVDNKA

PlsB = molecular target: T2, PlsB (Escherichia coli, UniProt P0A7A7); assay: in vitro lyso-phosphatidic acid synthesis, product by LC-MS; format: biochemical; conditions: co-substrate acyl-CoA made from oleic acid and CoA by FadD
T2 sequence (P0A7A7 2-807): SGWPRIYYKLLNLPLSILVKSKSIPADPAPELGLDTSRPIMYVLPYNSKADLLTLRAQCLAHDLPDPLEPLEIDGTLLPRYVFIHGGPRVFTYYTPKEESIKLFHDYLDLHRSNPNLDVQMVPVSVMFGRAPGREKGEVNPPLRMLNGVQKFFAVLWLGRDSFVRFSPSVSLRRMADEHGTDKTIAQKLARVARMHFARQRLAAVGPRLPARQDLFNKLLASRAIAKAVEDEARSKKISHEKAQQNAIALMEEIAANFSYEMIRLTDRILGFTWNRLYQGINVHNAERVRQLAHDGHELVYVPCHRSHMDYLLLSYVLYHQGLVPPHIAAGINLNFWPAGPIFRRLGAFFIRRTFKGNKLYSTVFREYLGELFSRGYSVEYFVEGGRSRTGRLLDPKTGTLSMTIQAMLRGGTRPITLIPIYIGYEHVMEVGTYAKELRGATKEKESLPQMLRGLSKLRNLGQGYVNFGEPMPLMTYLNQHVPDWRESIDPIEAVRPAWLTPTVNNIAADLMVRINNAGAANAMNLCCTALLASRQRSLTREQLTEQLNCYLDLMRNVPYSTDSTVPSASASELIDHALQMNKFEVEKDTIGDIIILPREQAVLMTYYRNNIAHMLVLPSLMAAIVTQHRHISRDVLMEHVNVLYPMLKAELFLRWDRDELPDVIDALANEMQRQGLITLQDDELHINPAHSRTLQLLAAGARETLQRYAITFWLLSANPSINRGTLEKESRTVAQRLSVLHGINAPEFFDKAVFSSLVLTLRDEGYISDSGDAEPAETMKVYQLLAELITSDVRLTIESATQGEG

purified protein [1] = substrate: O=P(O)(O)OC[C@H](O)CO; assay: purified protein; conditions: co-substrate GGPP
purified protein [2] = substrate: O=P(O)(O)OC[C@@H](O)CO; assay: purified protein; conditions: co-substrate GGPP

CC(C)(COP(=O)(O)OP(=O)(O)OC[C@H]1O[C@@H](n2cnc3c(N)ncnc32)[C@H](O)[C@@H]1OP(=O)(O)O)[C@@H](O)C(=O)NCCC(=O)NCCS [CoA]
in vitro acyl-CoA synthesis, product by LC-MS (FadD; co-substrate oleic acid): in vitro condensation of oleic acid and CoA to yield acyl-CoA

O=P(O)(O)OC[C@H](O)CO [G3P]
in vitro lyso-phosphatidic acid synthesis, product by LC-MS (PlsB): LPA synthesis was observed only in the presence of G3P

CCCCCCCC/C=C\CCCCCCCC(=O)O [oleic acid]
in vitro acyl-CoA synthesis, product by LC-MS (FadD; co-substrate CoA): in vitro condensation of oleic acid and CoA to yield acyl-CoA

B1: GGGPS (Methanococcus maripaludis S2) (protein)
chain: MQIKIGEIESKLNKIIEEEGAAYFVLIDPDEKNYREIANHVKDYADAIIIGGSIGIINLDEVTKDIKEITGLPIILFPGNVDGVTKEADAVFFMSLMNSKNTYWNMTAPTLGALTIKKYGLETLPMAYLGIEPISKTAVGFVGEVNEIPQKKPEIAGLYSLSASYFGMRWAYLEAGSGAEYPVSNEMVGISKKLSGINIIVGGGIRTPEVAYEKVMSGADVIVTGTLTEKDPQAVVEMKKAIKKAGLDKLKMLSKK
Km (purified protein [1]): 46.7 ± 6 µM | Km (purified protein [2]): 5.8 ± 1.6 µM
